Patent publication US10640486B2, “Heteroarylcarboxamide derivatives as plasma kallikrein inhibitors” (Boehringer Ingelheim International GmbH, priority 2015, dated 2020)

These molecules were tested against human Plasma Kallikrein (KLKB1) (Homo sapiens (Human), UniProt P03952) (assay: Inhibition of KLKB1 endpoint assay). Conditions: fluorogenic substrate H-Pro-Phe-Arg-AMC, 1 hr at Room Temperature, read-out: IC50 measurements for the inhibition of human Plasma Kallikrein (KLKB1).
Assay type: biochemical
Protocol: The ability of compounds of Formula I to inhibit plasma kallikrein (KLKB1), Factor XIIa (FXIIa), Factor XIa (FXIa), Factor Xa (FXa), Factor IIa (alpha-thrombin; FIIa), plasmin, trypsin, tissue kallikrein 1 (KLK1), Factor VIIa (FVIIa), or FVIIa complexed with Tissue Factor, phospholipids and CaCl2 (FVIIa/TF/PL/CaCl2) was determined using the following biochemical assays in assay buffer (100 mM Tris, 150 mM NaCL, adjusted to a pH of 7.8 with HCl, and containing 0.1% (w/v) BSA and 0.05% (v/v) Tween20) in the presence of 1% (v/v) DMSO:
Evaluation of the Inhibition of KLKB1 Using an Endpoint Assay
Subsequently, PPACK II (Calbiochem) was added as a stop solution to achieve a final concentration of 1 μM and fluorescence was measured using an Envision Reader (PerkinElmer) with the wavelength excitation setting of 355 nm and the wavelength emission setting of 460 nm.
The IC50 values were obtained with the aid of the inhibition of KLKB1 endpoint assay described above.

Sequence of human Plasma Kallikrein (KLKB1) (P03952 391-638): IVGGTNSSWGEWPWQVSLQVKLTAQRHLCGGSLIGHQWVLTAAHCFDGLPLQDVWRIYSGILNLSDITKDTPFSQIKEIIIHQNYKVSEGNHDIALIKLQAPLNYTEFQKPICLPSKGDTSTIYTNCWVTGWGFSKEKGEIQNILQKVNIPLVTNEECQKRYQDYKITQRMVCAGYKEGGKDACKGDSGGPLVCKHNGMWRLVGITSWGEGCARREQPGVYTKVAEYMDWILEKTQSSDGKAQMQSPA
Sequence of human Plasma Kallikrein (KLKB1) (P03952 20-390 partner): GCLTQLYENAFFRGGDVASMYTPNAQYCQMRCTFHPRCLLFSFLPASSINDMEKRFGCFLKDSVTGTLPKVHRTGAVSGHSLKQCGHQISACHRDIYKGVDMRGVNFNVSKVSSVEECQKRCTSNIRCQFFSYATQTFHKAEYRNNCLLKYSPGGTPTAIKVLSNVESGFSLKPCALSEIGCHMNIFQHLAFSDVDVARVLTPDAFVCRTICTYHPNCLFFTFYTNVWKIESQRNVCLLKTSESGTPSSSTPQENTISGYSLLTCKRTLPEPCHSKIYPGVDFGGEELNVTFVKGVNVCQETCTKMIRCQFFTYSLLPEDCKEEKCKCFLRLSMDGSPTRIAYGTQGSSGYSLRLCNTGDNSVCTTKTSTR

Row | IC50 [nM] | Compound
1 | 69 | Nc1nccc2c1CCC2NC(=O)c1cnn(Cc2ccc(CN3C[C@@H]4C[C@@H]4C3=O)cc2)c1 (single isomer, unassigned) [Example 48]
2 | 2 | Nc1nccc2c1CCC2NC(=O)c1cnn(Cc2ccc(CN3C[C@@H]4C[C@@H]4C3=O)cc2)c1 (single isomer, unassigned) [Example 49]
3 | 1 | Nc1nccc2c1CCC2NC(=O)c1cn(Cc2ccc(CN3C[C@@H]4C[C@@H]4C3=O)cc2)nc1C(F)(F)F (single isomer, unassigned) [Example 50]
4 | 89 | Nc1nccc2c1CCC2NC(=O)c1cn(Cc2ccc(CN3C[C@@H]4C[C@@H]4C3=O)cc2)nc1C(F)(F)F (single isomer, unassigned) [Example 51]
5 | 41 | Nc1nccc2c1CC[C@H]2NC(=O)c1cnn(Cc2ccc(CN3CC4CC4C3=O)c(C(F)(F)F)c2)c1 (single isomer, unassigned) [Example 52]
6 | 1 | Nc1nccc2c1CC[C@H]2NC(=O)c1cnn(Cc2ccc(CN3CC4CC4C3=O)c(C(F)(F)F)c2)c1 (single isomer, unassigned) [Example 53]
7 | 46 | Nc1nccc2c1CCC2NC(=O)c1cnn(Cc2ccc(CN3C[C@H]4C[C@H]4C3=O)cc2)c1 (single isomer, unassigned) [Example 54]
8 | 490 | Nc1nccc2c1CCC2NC(=O)c1cnn(Cc2ccc(CN3C[C@H]4C[C@H]4C3=O)cc2)c1 (single isomer, unassigned) [Example 55]
9 | 1200 | Cc1cc(Cn2cc(C(=O)N[C@@H]3CCc4c3ccnc4N)nn2)ccc1N1CCN2CCCCC2C1=O (single isomer, unassigned) [Example 56]
10 | 6200 | Cc1cc(Cn2cc(C(=O)N[C@@H]3CCc4c3ccnc4N)nn2)ccc1N1CCN2CCCCC2C1=O (single isomer, unassigned) [Example 57]
11 | 1600 | Cc1cc(Cn2cc(C(=O)N[C@@H]3CCc4c3ccnc4N)nn2)ccc1N1CCN2CCCC2C1=O (single isomer, unassigned) [Example 58]
12 | 2200 | Cc1cc(Cn2cc(C(=O)N[C@@H]3CCc4c3ccnc4N)nn2)ccc1N1CCN2CCCC2C1=O (single isomer, unassigned) [Example 59]
13 | 470 | Cc1cc(Cn2cc(C(=O)N[C@@H]3CCc4nc(N)ccc43)cn2)ccc1CN1CC2CC2C1=O (single isomer, unassigned) [Example 67]
14 | 10 | Cc1cc(Cn2cc(C(=O)N[C@@H]3CCc4nc(N)ccc43)cn2)ccc1CN1CC2CC2C1=O (single isomer, unassigned) [Example 68]
15 | 530 | Nc1ccc2c(n1)CC[C@H]2NC(=O)c1cnn(Cc2ccc(CN3C[C@H]4C[C@H]4C3=O)cc2)c1 [Example 1, 1-[4-((1R,5S)-2-Oxo-3-aza-bicyclo[3.1.0]hex-3-ylmethyl)-benzyl]-1H-pyrazole-4-carboxylic acid ((R)-2-amino-6,7-dihydro-5H-[1]pyrindin-5-yl)-amide]
16 | 2100 | Nc1ccc2c(n1)CCC2NC(=O)c1cnn(Cc2ccc(N3CCN4CCCC4C3)cc2)c1 (stereo not shown) [Example 2]
17 | 17 | Nc1ccc2c(n1)CC[C@H]2NC(=O)c1cnn(Cc2ccc(CN3C[C@@H]4C[C@@H]4C3=O)cc2)c1 [Example 3]
18 | 63 | Nc1ccc2c(n1)CCC2NC(=O)c1cn(Cc2ccc(CN3CC4CC4C3=O)cc2)nc1C(F)(F)F (stereo not shown) [Example 4]
19 | 10 | Nc1nccc2c1CCC2NC(=O)c1cnn(Cc2ccc(CN3CC4CC4C3=O)cc2)c1 (stereo not shown) [Example 5]

Row | IC50 [nM] | Compound
20 | 71 | Nc1cc2c(cn1)CCC2NC(=O)c1cnn(Cc2ccc(CN3CC4CC4C3=O)cc2)c1 (stereo not shown) [Example 6]
21 | 420 | Nc1ccc2c(n1)CC[C@H]2NC(=O)c1cn(Cc2ccc(CN3C[C@H]4C[C@H]4C3=O)cc2)nc1C(F)(F)F [Example 7]
22 | 14 | Nc1ccc2c(n1)CC[C@H]2NC(=O)c1cn(Cc2ccc(CN3C[C@@H]4C[C@@H]4C3=O)cc2)nc1C(F)(F)F [Example 8]
23 | 3200 | Nc1ccc2c(n1)CCC2NC(=O)c1cn(Cc2ccc(N3CCN4CCCCC4C3=O)cc2)nn1 (stereo not shown) [Example 9]
24 | 560 | Nc1ccc2c(n1)CCC2NC(=O)c1cn(Cc2ccc(Cn3cc4c(n3)CCOC4)cc2)nn1 (stereo not shown) [Example 10]
25 | > 10000 | Nc1ccc2c(n1)CCC2NC(=O)c1cn(Cc2ccc(CN3CCN4C(=O)CCCC4C3)cc2)nn1 (stereo not shown) [Example 11]
26 | > 10000 | Nc1nccc2c1C(NC(=O)c1cn(Cc3ccc(N4CCN5CCCCC5C4=O)cc3)nn1)CC2 (stereo not shown) [Example 12]
27 | > 10000 | Nc1cc2c(cn1)C(NC(=O)c1cn(Cc3ccc(N4CCN5CCCCC5C4=O)cc3)nn1)CC2 (stereo not shown) [Example 13]
28 | 5900 | Nc1ccc2c(n1)CCC2NC(=O)c1cn(Cc2ccc(CN3CCN4CCCC4C3=O)cc2)nn1 (stereo not shown) [Example 14]
29 | 81 | Nc1ccc2c(n1)CCC2NC(=O)c1cnn(Cc2ccc(CN3CC4CC4C3=O)cc2)c1 (stereo not shown) [Example 15]
30 | 85 | Cc1nn(Cc2ccc(CN3CC4CC4C3=O)cc2)cc1C(=O)NC1CCc2nc(N)ccc21 (stereo not shown) [Example 16]
31 | 42 | Cc1cc(N)nc2c1C(NC(=O)c1cnn(Cc3ccc(CN4CC5CC5C4=O)cc3)c1)CC2 (stereo not shown) [Example 17]
32 | 1200 | Cc1cc(Cn2cc(C(=O)NC3CCc4nc(N)ccc43)nn2)ccc1N1CCN2CCCCC2C1=O (stereo not shown) [Example 18]
33 | 2600 | Cc1cc(N)nc2c1C(NC(=O)c1cn(Cc3ccc(N4CCN5CCCCC5C4=O)cc3)nn1)CC2 (stereo not shown) [Example 19]
34 | 19 | Nc1ccc2c(n1)CC[C@H]2NC(=O)c1cnn(Cc2ccc(CN3CC4CC4C3=O)c(C(F)(F)F)c2)c1 (stereo partly shown) [Example 22]
35 | 2 | Nc1nccc2c1CC[C@H]2NC(=O)c1cnn(Cc2ccc(CN3CC4CC4CC3=O)cc2)c1 (stereo partly shown) [Example 23]
36 | 3300 | Nc1cc(C(F)(F)F)c2c(n1)CCC2NC(=O)c1cnn(Cc2ccc(CN3CC4CC4C3=O)cc2)c1 (stereo not shown) [Example 24]
37 | > 10000 | Nc1ccc2c(n1)CCC2NC(=O)c1cn(Cc2ccc(-n3cc4c(n3)CCOC4)cc2)nn1 (stereo not shown) [Example 27]
38 | 2200 | Nc1ccc2c(n1)CCC2NC(=O)c1cn(Cc2ccc(C3CC4CCCN4C3=O)cc2)nn1 (stereo not shown) [Example 29]

Row | IC50 [nM] | Compound
39 | 24 | Nc1ccc2c(n1)CC[C@H]2NC(=O)c1cn(Cc2ccc(N3CC4CC4C3)nc2)nn1 (stereo partly shown) [Example 32]
40 | 2 | Nc1nccc2c1CC[C@H]2NC(=O)c1cn(Cc2ccc(N3CC4CC4C3)nc2)nn1 (stereo partly shown) [Example 33]
41 | 390 | Nc1nccc2c1CC[C@H]2NC(=O)c1cn(Cc2ccc(N3CC(=O)N4CCCC4C3)nc2)nn1 (stereo partly shown) [Example 34]
42 | 600 | Nc1nccc2c1CC[C@H]2NC(=O)c1cn(Cc2ccc(N3CCN4C(=O)COCC4C3)nc2)nn1 (stereo partly shown) [Example 35]
43 | 1 | Nc1nccc2c1CC[C@H]2NC(=O)c1cnn(Cc2ccc(N3CC4CC4C3)nc2C(F)(F)F)c1 (stereo partly shown) [Example 36]
44 | 8 | Nc1ccc2c(n1)CC[C@H]2NC(=O)c1cnn(Cc2ccc(N3CC4CC4C3)nc2C(F)(F)F)c1 (stereo partly shown) [Example 37]
45 | 1 | Nc1nccc2c1CC[C@H]2NC(=O)c1cn(Cc2ccc(N3CC4CC4C3)nc2C(F)(F)F)nn1 (stereo partly shown) [Example 38]
46 | 14 | Nc1ccc2c(n1)CC[C@H]2NC(=O)c1cn(Cc2ccc(N3CC4CC4C3)nc2C(F)(F)F)nn1 (stereo partly shown) [Example 39]
47 | 9 | Nc1ccc2c(n1)CC[C@H]2NC(=O)c1cnn(Cc2cnc(N3CC4CC4C3)cc2C(F)(F)F)c1 (stereo partly shown) [Example 40]
48 | 1 | Nc1nccc2c1CC[C@H]2NC(=O)c1cnn(Cc2cnc(N3CC4CC4C3)cc2C(F)(F)F)c1 (stereo partly shown) [Example 41]
49 | 1 | Nc1nccc2c1CC[C@H]2NC(=O)c1cn(Cc2cnc(N3CC4CC4C3)cc2C(F)(F)F)nn1 (stereo partly shown) [Example 42]
50 | 13 | Nc1ccc2c(n1)CC[C@H]2NC(=O)c1cn(Cc2cnc(N3CC4CC4C3)cc2C(F)(F)F)nn1 (stereo partly shown) [Example 43]
51 | 30 | Cc1cc(N2CC3CC3C2)ncc1Cn1cc(C(=O)N[C@@H]2CCc3nc(N)ccc32)cn1 (stereo partly shown) [Example 44]
52 | 4 | Cc1cc(N2CC3CC3C2)ncc1Cn1cc(C(=O)N[C@@H]2CCc3c2ccnc3N)cn1 (stereo partly shown) [Example 45]
53 | 38 | Cc1cc(N2CC3CC3C2)ncc1Cn1cc(C(=O)N[C@@H]2CCc3nc(N)ccc32)nn1 (stereo partly shown) [Example 46]
54 | 4 | Cc1cc(N2CC3CC3C2)ncc1Cn1cc(C(=O)N[C@@H]2CCc3c2ccnc3N)nn1 (stereo partly shown) [Example 47]
55 | 340 | Nc1ccc2c(n1)CCC2NC(=O)c1cn(Cc2ccc(CN3CC4CCCN4C3=O)cc2)nn1 (stereo not shown) [Example 61, 1-[4-(3-Oxo-tetrahydro-pyrrolo[1,2-c]imidazol-2-ylmethyl)-benzyl]-1H-[1,2,3]triazole-4-carboxylic acid (2-amino-6,7-dihydro-5H-[1]pyrindin-5-yl)-amide]
56 | 410 | Nc1ccc2c(n1)CCC2NC(=O)c1cn(Cc2ccc(CN3CC4CC4C3=O)cc2)nn1 (stereo not shown) [Example 62, 1-[4-(2-Oxo-3-aza-bicyclo[3.1.0]hex-3-ylmethyl)-benzyl]-1H-[1,2,3]triazole-4-carboxylicacid (2-amino-6,7-dihydro-5H-[1]pyrindin-5-yl)-amide]

Row | Compound | IC50 [nM]
57 | CC(c1ccc(N2CC3CC3C2)nc1)n1cc(C(=O)N[C@@H]2CCc3c2ccnc3N)cn1 (single isomer, unassigned) [Example 72] | 10
58 | CC(c1ccc(N2CC3CC3C2)nc1)n1cc(C(=O)N[C@@H]2CCc3c2ccnc3N)cn1 (single isomer, unassigned) [Example 73] | 6
